{"source": "paper PMC5951580", "about": "“The effect of acylation with fatty acids and other modifications on HLA class II:peptide binding and T cell stimulation for three model peptides” (PLoS ONE, 2018)", "key": {"[1]": {"test_system": "PBMCs from healthy donors", "experiment": "Two-week re-stimulation T cell assay with IFN-γ, IL-5 and IL-10 fluorospot", "assay_type": "cell-based, human", "conditions": "for Frequency of responding donors (all cytokines) / Frequency of responding donors compared to the non-acylated peptide (in words) / Magnitude of the response (SFC, all cytokines) compared to the non-acylated peptide (in words): peptide 50 μg/ml, IFN-γ/IL-5/IL-10 fluorospot, n = 22; for Frequency of responding donors (all cytokines): 14 days stimulation with IL-2, re-stimulation 20h, one positive hit for one cytokine equals a positive donor; for Frequency of responding donors compared to the non-acylated peptide (in words) / Magnitude of the response (SFC, all cytokines) compared to the non-acylated peptide (in words): re-stimulation"}, "HLA-DR alleles": {"test_system": "HLA-DR alleles", "set-up": "species or system human", "conditions": "15 HLA-DR alleles analyzed, IC50 of 1000 nM as binding threshold"}, "[2]": {"conditions": "cited from earlier work"}, "HLA-DQA1*01:02/B1*06:02": {"target": "HLA-DQA1*01:02/B1*06:02 (Homo sapiens, UniProt P01909+P01920, A157G/A45G/C70R/E118A/E183D/E77G/F83G/G63E/H151Q/H199R/H252R/H253Q/I129T/I235V/I88M/INS77G/K197Q/L117V/L119F/L178F/L71W/L74F/L85Q/L91A/L98M/N214S/P87R/Q116E/Q76K/R102G/R240Q/R75S/R78G/S102Y/S185I/S41F/S97I/T121G/T122I/T172A/T86R/V229M/V68A/V73E/Y34C/Y41F/Y58L)", "sequence (P01920 33-261 with the stated changes limits assumed, other chains not shown)": "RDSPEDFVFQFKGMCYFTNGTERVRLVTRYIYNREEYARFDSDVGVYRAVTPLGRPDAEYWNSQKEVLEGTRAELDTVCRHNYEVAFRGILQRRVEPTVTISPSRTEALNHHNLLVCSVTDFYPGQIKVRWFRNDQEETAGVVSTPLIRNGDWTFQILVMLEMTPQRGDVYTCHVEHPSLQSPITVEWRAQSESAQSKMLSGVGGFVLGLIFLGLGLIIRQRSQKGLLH", "assay_type": "binding", "conditions": "threshold IC50 1000 nM"}, "[3]": {"conditions": "human, in vivo; cited from earlier work"}}, "data": [{"substance": "Peptide 12: Exendin-4 acylated with C18 via Oeg-Oeg-LγGlu at C-terminus", "values": [{"measurement": "Frequency of responding donors (all cytokines)", "setting": "[1]", "result": 10, "unit": "%"}]}, {"substance": "Peptide 13: Exendin-4 acylated with 2 x C18 via Oeg-Oeg-LγGlu at 12 (K) + 27 (K)", "values": [{"measurement": "Frequency of responding donors compared to the non-acylated peptide (in words)", "setting": "[1]; 14 days stimulation", "result": "decreased"}, {"measurement": "Magnitude of the response (SFC, all cytokines) compared to the non-acylated peptide (in words)", "setting": "[1]; 14 days stimulation", "result": "decreased"}]}, {"substance": "PKYVKQNTLKLAT [Peptide 1]", "values": [{"measurement": "Cytokine response (IFN-γ, IL-5, IL-10 secreting cells) in words", "setting": "[1]; peptide 5 μg/ml, 14 days stimulation, re-stimulation 20 hours, fluorospot, seven donors", "result": "significant numbers of IFN-γ, IL-5 and IL-10 producing cells"}, {"measurement": "HLA-DR alleles that bound the peptide with an affinity of 1000 nM or better (number/number analyzed)", "setting": "HLA-DR alleles", "result": "12/15"}, {"measurement": "HLA-DR alleles that bound the peptide with an affinity of 1000 nM or better", "setting": "HLA-DR alleles; radiolabeled peptide competition, two-day incubation, three or more independent experiments", "result": 80, "unit": "%"}, {"measurement": "Donors with an immunogenic response", "setting": "[2]", "result": "approximately 30%"}, {"measurement": "HLA-DQA1*01:02/B1*06:02 binding capacity (binder / non-binder)", "setting": "HLA-DQA1*01:02/B1*06:02", "result": "non-binder"}]}, {"substance": "Peptide 11: Exendin-4 acylated with C18 via Oeg-Oeg-LγGlu at 27 (K)", "values": [{"measurement": "Frequency of responding donors (all cytokines)", "setting": "[1]", "result": "None"}]}, {"substance": "Peptide 7: Exendin-4 (1–39), 39-aa peptide used for the treatment of diabetes mellitus type 2, non-acylated", "values": [{"measurement": "Frequency of responding donors (all cytokines)", "setting": "[1]", "result": 40, "unit": "%"}, {"measurement": "Patients treated with the compound that show an immunogenic response", "setting": "[3]", "result": "40–60%"}]}, {"substance": "QLLDRGATALVLQVLNVPRLMTQD [Peptide 14, Vatreptacog alfa (285–309) peptide fragment, 25-aa, non-acylated]", "values": [{"measurement": "Frequency of responding donors (all cytokines)", "setting": "[1]", "result": 45, "unit": "%"}]}, {"substance": "Peptide 10: Exendin-4 acylated with C18 via Oeg-Oeg-LγGlu at 20 (WT R to K)", "values": [{"measurement": "Frequency of responding donors compared to the non-acylated peptide (in words)", "setting": "[1]; 14 days stimulation", "result": "further decreases"}, {"measurement": "Magnitude of the response (SFC, all cytokines) compared to the non-acylated peptide (in words)", "setting": "[1]; 14 days stimulation", "result": "decreased magnitudes"}]}]}
